Test results: patent US11517541B2, “Applications of spermidine and its derivatives” (GENEHEAL BIOTECHNOLOGY CO., LTD., priority 2017, dated 2022)

How the values were obtained:
[1] = molecular target: T1, PAICS (Homo sapiens, UniProt P22234); experiment: Inhibition of spermidine on PAICS activity (SAICAR accumulation); settings: biochemical enzyme activity experiments and cell biology experiments
T1 sequence (P22234 1-425): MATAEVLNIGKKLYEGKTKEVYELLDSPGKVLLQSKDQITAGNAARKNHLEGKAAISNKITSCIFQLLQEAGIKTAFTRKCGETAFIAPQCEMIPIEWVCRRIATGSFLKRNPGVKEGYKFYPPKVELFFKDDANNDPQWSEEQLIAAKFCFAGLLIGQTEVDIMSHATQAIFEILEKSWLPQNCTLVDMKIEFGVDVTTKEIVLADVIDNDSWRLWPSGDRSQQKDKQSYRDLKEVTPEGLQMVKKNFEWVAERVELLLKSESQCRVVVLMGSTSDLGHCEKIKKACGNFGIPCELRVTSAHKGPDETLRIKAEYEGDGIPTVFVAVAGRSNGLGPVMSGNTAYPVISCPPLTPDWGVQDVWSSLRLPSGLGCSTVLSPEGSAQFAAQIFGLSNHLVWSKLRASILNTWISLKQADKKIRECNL
From the text: The accumulation of toxic compound SAICAR is reduced by inhibiting the activity of PAICS.

[2] = test system: oncogene myc; experiment: Inhibition of oncogene MYC expression (Western Blot); format: cell-based; settings: FIG. 4
[3] = test system: lung cancer cell strain A549; experiment: Cancer cell growth inhibition / cell viability; format: cell-based; settings: Homo sapiens, after 48 hours of drug administration
[4] = test system: lung cancer cell strain H1299; experiment: Cancer cell growth inhibition / cell viability; format: cell-based; settings: Homo sapiens, NCI-H1299, after 48 hours of drug administration
[5] = test system: lung cancer cell strain PC9; experiment: Cancer cell growth inhibition / cell viability; format: cell-based; settings: after 48 hours of drug administration
[6] = test system: breast cancer cell strain MD468; experiment: Cancer cell growth inhibition / cell viability; format: cell-based; settings: after 48 hours of drug administration
[7] = test system: breast cancer cell strain MD231; experiment: Cancer cell growth inhibition / cell viability; format: cell-based; settings: after 48 hours of drug administration

NCCCCNCCCN [spermidine]
inhibition of the accumulation of SAICAR [1]: up to 68.98% | expression of oncogene myc [2]: significantly down-regulated | IC50 [3]: 52.1 µM | IC50 [4]: 21.1 µM | IC50 [5]: 23.4 µM | IC50 [6]: 46.1 µM | IC50 [7]: 1.41 µM
